Results reported in patent US11230526B1, “Cylcoalkenyl derivatives useful as agonists of the GPR120 and/or GPR40 receptors” (Janssen Pharmaceutica NV, priority 2018, dated 2022).

What was measured:
[1] = target: T1, short form of the GPR120 receptor (Homo sapiens, UniProt Q5NUL3); experiment: Human GPR120 DiscoveRx PathHunter Beta-Arrestin assay, Procedure β-arrestin B; assay type: cell-based
T1 construct: host or cells: PathHunter CHO-K1 GPR120S β-Arrestin Cell Line

C57bl/6J Mice = experiment: GPR120 C57bl6 mouse IPGTT; assay type: in vivo; details: male C57bl/6J mice, dosed 30 minutes prior to glucose (IP) 1.5 g/kg
Description: Male, C57bl/6J Mice were ordered in at 8 weeks of age from Jackson Labs. Individual mice weighed anywhere in the range of 25-30 grams on study day. The mice were fasted, with removal of food occurring at 7 am on the morning of the study. Animals were moved into the room at 10:00 am, to give them time to acclimate. Glucose (insulin syringes) was drawn up either the night before or the morning of the study. Glucose was dosed (IP) at 1.5 g/kg at 7.5 ml/kg (20% glucose straight TEKNOVA, 250 ml sterile bottle w/catalogue number G0525). Test compounds were kept spinning and were only drawn into the syringes prior to study commencement. Animals were bled via tail snip to determine basal glucose levels prior to dosing of treatments. An Ascensia BREEZE Blood Glucose Monitoring System by Bayer (using unique 10-test disks) was used for determining glucose levels. The bleeds started at approximately 12:45 pm and dosing started, at 1-minute intervals, immediately after. All groups were dosed 30 minutes prior to glucose administration at a dose volume of 10 ml/kg (the dose volume was calculated separately for each individual animal). Thirty minutes after the first dose animals were bled again for a second baseline, or T=0, and immediately dosed with glucose via an i.p. injection. The exact dose volume for glucose was also calculated separately for each individual animal. Glucose measurements were taken at −30 min prior to compound dose, at t=0 (immediately prior to glucose dose), and at 15, 30, 45, 60, 90 min post glucose dose.
Glucose values were entered into an Excel sheet and graphed in GraphPad Prism. The following were calculated from Prism: Change from −30 to 0 Baseline Glucose, Raw Glucose AUC −30 to 90 min, Delta Glucose AUC −30 to 90 min, Raw Glucose AUC 0 to 90 min, Delta Glucose AUC 0 to 90 min.

T1 sequence (Q5NUL3 whole entry): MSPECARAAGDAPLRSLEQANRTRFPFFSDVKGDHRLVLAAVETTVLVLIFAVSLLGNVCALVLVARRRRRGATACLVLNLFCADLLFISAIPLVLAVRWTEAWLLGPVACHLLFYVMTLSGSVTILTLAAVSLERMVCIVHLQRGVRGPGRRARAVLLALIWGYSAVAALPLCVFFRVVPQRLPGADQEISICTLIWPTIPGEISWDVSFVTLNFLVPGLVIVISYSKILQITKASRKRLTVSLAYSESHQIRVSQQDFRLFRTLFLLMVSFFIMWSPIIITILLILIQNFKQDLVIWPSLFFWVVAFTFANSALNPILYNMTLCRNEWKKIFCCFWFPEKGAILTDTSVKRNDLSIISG
T1 sequence (P32121 whole entry partner): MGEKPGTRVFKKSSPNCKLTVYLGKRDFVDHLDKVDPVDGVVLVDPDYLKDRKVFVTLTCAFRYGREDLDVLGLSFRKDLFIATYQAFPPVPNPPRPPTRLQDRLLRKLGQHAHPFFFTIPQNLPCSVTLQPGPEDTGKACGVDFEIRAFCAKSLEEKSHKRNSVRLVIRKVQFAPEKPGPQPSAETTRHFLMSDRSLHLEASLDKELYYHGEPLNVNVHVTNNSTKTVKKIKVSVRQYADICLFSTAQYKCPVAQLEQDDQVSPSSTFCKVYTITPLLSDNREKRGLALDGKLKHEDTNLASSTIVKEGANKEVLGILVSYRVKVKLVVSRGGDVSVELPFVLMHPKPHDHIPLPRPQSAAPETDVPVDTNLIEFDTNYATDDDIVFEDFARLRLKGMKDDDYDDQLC

Cc1ccc(C2=C(COc3ccc(CCC(=O)O)c(C)c3C)CCC2)cn1 [Compound 85, 3-(2,3-dimethyl-4-((2-(6-methylpyridin-3-yl)cyclopent-1-en-1-yl)methoxy)phenyl)Propanoic Acid]
EC50 [1]: 725 nM | C57 IPGTT, Dose Response Results (C57bl/6J Mice; 1 mg/kg): 13% | C57 IPGTT, Dose Response Results (C57bl/6J Mice; 3 mg/kg): 24% | C57 IPGTT, Dose Response Results (C57bl/6J Mice; 10 mg/kg): 19%

CCc1ccc(C2=C(COc3ccc(CCC(=O)O)c(C)c3C)CCC2)cc1 [Compound 27, 3-(4-((2-(4-ethylphenyl)cyclopent-1-en-1-yl)methoxy)-2,3-dimethylphenyl)Propanoic Acid]
EC50 [1]: 77 nM | C57 IPGTT, Dose Response Results (C57bl/6J Mice; 1 mg/kg): 15% | C57 IPGTT, Dose Response Results (C57bl/6J Mice; 3 mg/kg): 23% | C57 IPGTT, Dose Response Results (C57bl/6J Mice; 10 mg/kg): 37%

Cc1cc(CCC(=O)O)ccc1OCC1=C(c2ccc(Cl)cc2)CCC1 [Compound 62, 3-[4-[[2-(4-chlorophenyl)cyclopenten-1-yl]methoxy]-3-methyl-phenyl]Propanoic Acid]
EC50 [1]: 75 nM | C57 IPGTT, Dose Response Results (C57bl/6J Mice; 1 mg/kg): 10% | C57 IPGTT, Dose Response Results (C57bl/6J Mice; 3 mg/kg): 35% | C57 IPGTT, Dose Response Results (C57bl/6J Mice; 10 mg/kg): 56%
